Measurements reported in patent US20260374782A1, “NEW COMPOUNDS, PROCESSES FOR PREPARING THE SAME AND THEIR USE AS DRUGS” (B&A ONCOMEDICAL, priority 2022, published 2026).

Target: T1, NKCC1 (Homo sapiens, UniProt P55011)
T1 construct: endogenous in cells; host or cells: native HEK293 cells
T1 sequence (P55011 1-1212): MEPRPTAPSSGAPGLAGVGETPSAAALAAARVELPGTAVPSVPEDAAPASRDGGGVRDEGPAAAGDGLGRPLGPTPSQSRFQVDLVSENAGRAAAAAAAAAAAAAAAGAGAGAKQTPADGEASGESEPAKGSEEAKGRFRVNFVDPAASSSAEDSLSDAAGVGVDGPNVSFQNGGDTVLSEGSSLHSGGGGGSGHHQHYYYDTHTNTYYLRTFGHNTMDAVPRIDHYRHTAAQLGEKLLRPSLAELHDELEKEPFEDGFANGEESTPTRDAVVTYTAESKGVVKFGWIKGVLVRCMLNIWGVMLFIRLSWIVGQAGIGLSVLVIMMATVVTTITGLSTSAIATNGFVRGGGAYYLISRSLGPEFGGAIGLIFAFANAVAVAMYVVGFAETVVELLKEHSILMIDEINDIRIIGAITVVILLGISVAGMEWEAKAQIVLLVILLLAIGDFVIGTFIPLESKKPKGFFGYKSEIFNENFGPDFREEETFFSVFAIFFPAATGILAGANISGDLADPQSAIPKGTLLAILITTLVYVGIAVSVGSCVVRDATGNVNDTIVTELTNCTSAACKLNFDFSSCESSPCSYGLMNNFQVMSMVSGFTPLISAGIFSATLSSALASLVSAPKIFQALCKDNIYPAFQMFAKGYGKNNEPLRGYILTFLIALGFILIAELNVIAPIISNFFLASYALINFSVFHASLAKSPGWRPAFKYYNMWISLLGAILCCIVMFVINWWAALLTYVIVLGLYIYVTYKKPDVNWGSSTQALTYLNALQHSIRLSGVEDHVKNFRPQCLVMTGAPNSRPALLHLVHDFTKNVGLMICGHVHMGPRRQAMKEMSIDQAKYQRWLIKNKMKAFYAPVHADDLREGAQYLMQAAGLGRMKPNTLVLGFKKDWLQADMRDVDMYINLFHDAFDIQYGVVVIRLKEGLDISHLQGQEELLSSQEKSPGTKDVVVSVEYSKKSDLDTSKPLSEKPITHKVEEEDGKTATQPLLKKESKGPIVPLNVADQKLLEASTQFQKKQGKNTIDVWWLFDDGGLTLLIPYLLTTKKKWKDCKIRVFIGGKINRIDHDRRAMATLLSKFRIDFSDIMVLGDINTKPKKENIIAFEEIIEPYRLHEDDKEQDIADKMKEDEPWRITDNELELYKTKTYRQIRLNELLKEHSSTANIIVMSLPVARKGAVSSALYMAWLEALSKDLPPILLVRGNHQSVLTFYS
Assay: NKCC1-mediated K+ influx (83Rb tracer uptake) in native HEK293 cells, hypertonic saline, 100 μM ouabain
Type: cell-based
Conditions: HEK293, no drug = 1000, 20 μM bumetanide = 0; for inhibition at 2 µM: read-out: NKCC1 mediated flux inhibition at 2 μM (%); for inhibition at 20 µM: read-out: NKCC1 mediated flux inhibition at 20 μM (%)
In short: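 Native cells in slightly hypertonic saline with 100 μM ouabain; 15 min preincubation then 15 min 83Rb uptake (0.25 μCi/mL), scintillation counting normalized to protein. Compounds at 2 μM and 20 μM; flux scaled 1000 (no drug) to 0 (20 μM bumetanide), triplicate dishes.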

CCCCNc1cc(C(=O)O)cc(S(=N)(=O)NC)c1Oc1ccccc1 (stereo not shown) [Compound 51, 3-(butylamino)-5-(methylaminosulfonimidoyl)-4-phenoxy-benzoic acid]
inhibition at 2 µM: 50 to 75%
inhibition at 20 µM: ≥ 75%

CCCCNc1cc(C(=O)O)cc(S(=N)(=O)Nc2ccccc2)c1Oc1ccccc1 (stereo not shown) [Compound 57, 3-(anilinosulfonimidoyl)-5-(butylamino)-4-phenoxy-benzoic acid]
inhibition at 2 µM: 50 to 75%
inhibition at 20 µM: ≥ 75%
